In ChEMBL document CHEMBL5727270, “Macrocyclic immunomodulators” (2019):

Target: Programmed cell death 1 ligand 1 (Homo sapiens, UniProt Q9NZQ7)
Experiment: Enzyme-Linked Immunosorbent Assay - ELISA: 96 Well plates were coated with 1 μg/mL of human PD-L1 (obtained from R&D) in PBS overnight at 4° C. The wells were then blocked with 2% BSA in PBS (W/V) with 0.05% TWEEN-20 for 1 hour at 37° C. The plates were washed 3 times with PBS/0.05% TWEEN-20 and the compounds were serial diluted (1:5) in dilution medium and added to the ELISA plates. Human PD-1 and biotin 0.3 μg/mL (ACRO Biosystems) were added and incubated for 1 hour at 37° C. then washed 3 times with PBS/0.05% TWEEN-20. A second block was performed with 2% BSA in PBS (W/V)/0.05% TWEEN-20 for 10 min at 37° C. and was washed 3 times with PBS/0.05% TWEEN-20. Streptavidin-HRP was added for 1 hour at 37° C. then washed 3 times with PBS/0.05% TWEEN-20. TMB substrate was added and reacted for 20 min at 37° C. A stop solution (2 N aqueous H2SO4) was added. The absorbance was read at 450 nm using a micro-plate spectrophotometer.

Sequence of Programmed cell death 1 ligand 1 (Q9NZQ7 whole entry): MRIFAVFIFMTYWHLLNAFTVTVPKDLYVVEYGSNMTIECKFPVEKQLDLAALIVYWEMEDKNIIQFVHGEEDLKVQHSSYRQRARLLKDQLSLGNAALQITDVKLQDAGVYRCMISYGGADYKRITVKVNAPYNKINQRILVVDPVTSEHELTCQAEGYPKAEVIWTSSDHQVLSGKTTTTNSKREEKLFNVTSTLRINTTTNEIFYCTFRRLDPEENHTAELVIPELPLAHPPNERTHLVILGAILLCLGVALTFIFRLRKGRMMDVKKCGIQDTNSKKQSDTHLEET

| Structure (SMILES) | IC50 |
| --- | --- |
| Cc1c(COc2cc3c(cc2Cl)CN[C@H](C(=O)O)CCCCCCNC(=O)c2cncc(c2)CO3)cccc1-c1cccc(OCCCN2CCC(O)CC2)c1C | < 100 nM |
| Cc1c(COc2cc3c(cc2Cl)CN[C@@H](C(=O)O)CCCCNC(=O)c2cncc(c2)CO3)cccc1-c1ccccc1 | < 100 nM |
| Cc1c(COc2cc3c(cc2Cl)CN[C@H](C(=O)O)CCCCNC(=O)c2cc(C#N)cc(c2)CO3)cccc1-c1cccc(OCCCN2CCC(O)CC2)c1C | < 100 nM |
| Cc1c(COc2cc3c(cc2Cl)CN[C@H](C(=O)O)CCCCNC(=O)c2cc(C#N)cc(c2)CO3)cccc1-c1cccc(OCCCN2CC[C@@H](O)C2)c1C | < 100 nM |
| Cc1c(COc2cc3c(cc2Cl)CN[C@H](CO)CCCCNC(=O)c2cncc(c2)CO3)cccc1-c1cccc(OCCCN2CCC(O)CC2)c1C | < 100 nM |
| Cc1c(COc2cc3c(cc2Cl)CN[C@H](C(=O)O)CCCCNC(=O)c2cncc(c2)CO3)cccc1-c1cccc(OCCCN2CC[C@@H](O)C2)c1C | < 100 nM |
